Consider one compound from patent publication US8691850B2, “Substituted phenylaminothiazoles and use thereof” (Bayer Intellectual Property GmbH, priority 2004, dated 2014).

Regarding `N#Cc1c(N)nc(SCc2csc(Nc3cccc(Cl)c3)n2)c(C#N)c1-c1ccc(OCC(O)CO)cc1` (stereo not shown) [Example 1, 2-Amino-6-[({2-[(3-chlorophenyl)amino]-1,3-thiazol-4-yl}methyl)thio]-4-[4-(2,3-dihydroxypropoxy)phenyl]pyridine-3,5-dicarbonitrile], the melting point fell in the range of 192 to 194 °C.
